In publication PMC3723537, “Structural Basis for Native Agonist and Synthetic Inhibitor Recognition by the Pseudomonas aeruginosa Quorum Sensing Regulator PqsR (MvfR)” (PLoS Pathogens, 2013):
Where two headings read alike, the source gives them in different places.

Key:
PqsR [1] = molecular target: T1, PqsR (Pseudomonas aeruginosa, UniProt Q9I4X0); details: cited from earlier work
T1 sequence (Q9I4X0 1-332): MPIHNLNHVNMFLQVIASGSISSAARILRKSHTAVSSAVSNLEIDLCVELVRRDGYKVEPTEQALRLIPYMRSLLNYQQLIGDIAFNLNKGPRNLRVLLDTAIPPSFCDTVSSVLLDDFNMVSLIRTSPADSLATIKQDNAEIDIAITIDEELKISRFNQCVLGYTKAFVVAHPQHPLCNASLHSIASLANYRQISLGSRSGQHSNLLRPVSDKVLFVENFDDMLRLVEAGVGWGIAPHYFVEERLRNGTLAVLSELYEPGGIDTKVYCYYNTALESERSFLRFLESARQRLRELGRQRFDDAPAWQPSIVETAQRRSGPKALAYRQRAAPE

PqsR [2] = molecular target: T1, PqsR; assay: cell-based; parameters: assayed for their agonist and antagonist activities in a whole P. aeruginosa bacterial cell assay; endogenous in cells; host or cells: P. aeruginosa PAO1 wild type, ΔpqsA or ΔpqsAH strains carrying a chromosomal (mini)CTX::pqsA'-lux fusion; details: Figure 2 (AQs); P. aeruginosa ΔpqsA CTX::pqsA'-lux strain; read-out: Agonist EC50 ±SD
PqsR [3] = molecular target: T1, PqsR; parameters: assayed for their agonist and antagonist activities in a whole P. aeruginosa bacterial cell assay; endogenous in cells; host or cells: P. aeruginosa PAO1 wild type, ΔpqsA or ΔpqsAH strains carrying a chromosomal (mini)CTX::pqsA'-lux fusion; method as in PMID 17922753; details: whole P. aeruginosa cell assays; cited from earlier work
PqsR [4] = molecular target: T1, PqsR; assay: cell-based; parameters: assayed for their agonist and antagonist activities in a whole P. aeruginosa bacterial cell assay; endogenous in cells; host or cells: P. aeruginosa PAO1 wild type, ΔpqsA or ΔpqsAH strains carrying a chromosomal (mini)CTX::pqsA'-lux fusion
PqsR [5] = molecular target: T1, PqsR; parameters: assayed for their agonist and antagonist activities in a whole P. aeruginosa bacterial cell assay; endogenous in cells; host or cells: P. aeruginosa PAO1 wild type, ΔpqsA or ΔpqsAH strains carrying a chromosomal (mini)CTX::pqsA'-lux fusion; method as in Xiao et al. [21]; details: different P. aeruginosa strain and reporter assay; ref Xiao et al. [21]; cited from earlier work
PqsR Leu207Glu = PqsR Leu207Glu (Pseudomonas aeruginosa, UniProt Q9I4X0, L207E); assay: Response of PqsR-6His ligand binding site variants to PQS and HHQ, pqsA'-lux in ΔpqsA ΔpqsH ΔpqsR strain; assay type: cell-based; details: Leu207Glu mutation; co-inducer 40 µM
PqsR [6] = molecular target: T1, PqsR; assay type: cell-based; parameters: assayed for their agonist and antagonist activities in a whole P. aeruginosa bacterial cell assay; endogenous in cells; host or cells: P. aeruginosa PAO1 wild type, ΔpqsA or ΔpqsAH strains carrying a chromosomal (mini)CTX::pqsA'-lux fusion; details: 100 µM QZN; ΔpqsA mutant
phzA1 promoter = assay type: cell-based; details: 12.5 µM; data not shown
P. aeruginosa PAO1 [7] = assay: AQ production by LC-MS/MS of culture extracts; assay type: cell-based, Pseudomonas aeruginosa; details: PAO1 grown with 200 µM; semi-quantitative
Protocol: (§1) The impact of 3-NH2-7Cl-C9-QZN on (a) AQ production was assayed by LC MS/MS after extracting bacterial cultures with acidified ethyl acetate; (b) pyocyanin was quantified spectrophotometrically and (c) biofilm development was examined using a Bioflux 200 microfluidics device (Fluxion Biosciences; in conjunction with GFP-labelled P. aeruginosa strains, [53]). All assays were performed in triplicate at least twice.

lecA = assay type: cell-based; details: P. aeruginosa PAO1, compared with control
PqsR [8] = molecular target: T1, PqsR; assay: cell-based; parameters: assayed for their agonist and antagonist activities in a whole P. aeruginosa bacterial cell assay; endogenous in cells; host or cells: P. aeruginosa PAO1 wild type, ΔpqsA or ΔpqsAH strains carrying a chromosomal (mini)CTX::pqsA'-lux fusion; remark: listed apart in the source
P. aeruginosa = assay type: cell-based; details: GFP-tagged wild type, flow conditions
P. aeruginosa PAO1 [9] = assay: Pyocyanin production, quantified spectrophotometrically; assay type: cell-based, Pseudomonas aeruginosa; details: PAO1 cultures, 50 or 100 µM
Protocol: as §1

For `CCCCCCCc1cc(=O)c2ccc(C(F)(F)F)cc2[nH]1` [7-CF3-substituted HHQ], the “Agonist activity relative to HHQ” value (PqsR [1]) is listed as “about 50%”.
In the case of `CCCCCCCc1[nH]c2ccccc2c(=O)c1O` [compound 1, 2-heptyl-3-hydroxy-4(1H)-quinolone], the EC50 (PqsR [2]) is given as 1.9 µM, the “EC50 for PqsR-dependent activation of pqsA” value (PqsR [3]) is given as “low micromolar range” and the EC50 (PqsR [4]; Figure 2 (AQs), P. aeruginosa ΔpqsAH CTX::pqsA'-lux strain, read-out: Agonist EC50 ±SD) is given as 3.8 ± 1.6 µM. The “Induction of the pqsA promoter compared with HHQ” value (PqsR [4]; P. aeruginosa ΔpqsA ΔpqsH double mutant) was about 3 fold, the “Induction compared with HHQ” value (PqsR [5]) was 100 fold and the “Response, % of pqsA promoter activity with respect to strain expressing PqsR-6His” value (PqsR Leu207Glu) was 39%.
In the case of `CCCCCCCCCc1nc2cc(Cl)ccc2c(=O)n1N` [compound 23], the “PQS concentration that competitively overcomes QZN-mediated PqsR inhibition” value (PqsR [6]) is reported as “above 25 µM”, the “Reduction of phzA1 promoter activity” value (phzA1 promoter) is reported as about 50% and the “Production of HHQ, NHQ, their N-oxides and PQS” value (P. aeruginosa PAO1 [7]) is reported as “reduced to very low levels”. The “Expression of lecA” value (lecA) was “reduced”, the IC50 (PqsR [8]) was 5 ± 1.6 µM and the Biofilm development (P. aeruginosa) was “reduced surface area coverage”. For the same molecule, the Pyocyanin levels (P. aeruginosa PAO1 [9]) was “substantially reduced”.
